Test systems include 786-0 renal; CAKI-1 renal; CCRF-CEM leukemia; DU-145 prostate; HS 578T breast; K-562 leukemia; KM12 colon; MALME-3M melanoma; NCI-H460 lung; NCI/ADR-RES ovarian; OVCAR-5 ovarian; PC-3 prostate; RXF 393 renal; SF-295 CNS; SF-539 CNS; SK-MEL-2 melanoma; SN12C renal; T-47D breast; U251 CNS; UO-31 renal.
Common to all, as to test: NCI tumour cell line growth inhibition, 48 h

The results in this text go back to PubChem BioAssay (NCI).

The structures appear in SMILES notation.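 The compound was tested at five concentrations on cells cultured in 96-well plates, with a 48-hour exposure period. Definition used: TGI = concentration required for complete inhibition of growth.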 Bounds are passed on as bounds.

In the case of `C=CC(c1ccccc1)[C@@]1(OC(C)=O)C(=O)C(=O)OC1C1COC(C)(C)O1` (stereo not given in full), the TGI in the assay on 786-0 renal was 33.4 µM; in the assay with CAKI-1 renal it was 11.7 µM; with CCRF-CEM leukemia, more than 19.6 µM; in the assay with DU-145 prostate, 54.2 µM; with HS 578T breast, 68.3 µM; with K-562 leukemia, more than 26 µM. In addition, the TGI came to 29.5 µM with KM12 colon; 34.3 µM with MALME-3M melanoma; 32.3 µM in the assay on NCI-H460 lung; 51.7 µM in the assay on NCI/ADR-RES ovarian; 33.2 µM with OVCAR-5 ovarian; 24.3 µM with PC-3 prostate. Besides, the TGI worked out at 14.6 µM in the assay on RXF 393 renal; 31.6 µM in the assay on SF-295 CNS; 29.4 µM with SF-539 CNS; 33.4 µM with SK-MEL-2 melanoma; 21.7 µM in the assay on SN12C renal; 41.1 µM with T-47D breast. The TGI stood at 28.7 µM with U251 CNS and 23.7 µM with UO-31 renal.

On to `CN(CCCCN1CCCC1)CCCN(C)C(=O)Cc1ccc(Cl)c(Cl)c1`, for which the TGI in the assay with 786-0 renal is 26.1 µM; in the assay with CAKI-1 renal, 49.6 µM; with CCRF-CEM leukemia, 20.9 µM; in the assay on DU-145 prostate it was more than 100 µM; in the assay with HS 578T breast it was 59.6 µM; with K-562 leukemia, 11.6 µM. The TGI with KM12 colon was 25.3 µM; in the assay on MALME-3M melanoma it was 34.7 µM; with NCI-H460 lung, 39.8 µM; with NCI/ADR-RES ovarian, more than 100 µM; in the assay with OVCAR-5 ovarian, 57.8 µM; in the assay with PC-3 prostate, 52.7 µM. Moreover, the TGI with RXF 393 renal was 29.6 µM; in the assay with SF-295 CNS, 38.8 µM; with SF-539 CNS, 24.3 µM; with SK-MEL-2 melanoma, 22.5 µM; in the assay on SN12C renal it was 37.8 µM; in the assay on T-47D breast it was 44.2 µM. Moreover, the TGI is 32.4 µM in the assay on U251 CNS and 3.72 µM in the assay on UO-31 renal.

Take `c1cc(Sc2nc(Sc3ccncc3)nc(Sc3ccncc3)n2)ccn1`: the TGI with 786-0 renal, with CAKI-1 renal, in the assay with CCRF-CEM leukemia, in the assay with DU-145 prostate, with HS 578T breast and with K-562 leukemia was more than 100 µM each time. The TGI in the assay on KM12 colon, in the assay on MALME-3M melanoma, in the assay on NCI-H460 lung, in the assay on NCI/ADR-RES ovarian, with OVCAR-5 ovarian and in the assay with PC-3 prostate was more than 100 µM in each case. The TGI with RXF 393 renal, in the assay on SF-295 CNS, in the assay with SF-539 CNS, in the assay with SK-MEL-2 melanoma, with SN12C renal and in the assay on T-47D breast was more than 100 µM in each case. For the same molecule, the TGI in the assay on U251 CNS and in the assay on UO-31 renal was more than 100 µM each time.

On to `COC(=O)c1ccccc1C1CN=NC12Cc1ccc(C)c(C)c1C2=O` (stereo not given), for which the TGI with 786-0 renal, in the assay on CAKI-1 renal, with CCRF-CEM leukemia, with DU-145 prostate, in the assay with HS 578T breast and in the assay on K-562 leukemia was more than 100 µM in each case. In addition, the TGI with KM12 colon, in the assay on MALME-3M melanoma, in the assay with NCI-H460 lung, in the assay with NCI/ADR-RES ovarian, in the assay with OVCAR-5 ovarian and in the assay on PC-3 prostate was more than 100 µM throughout. The TGI in the assay on RXF 393 renal, in the assay on SF-295 CNS, with SF-539 CNS, in the assay with SK-MEL-2 melanoma, in the assay on SN12C renal and in the assay with T-47D breast was more than 100 µM each time. Further, the TGI in the assay on U251 CNS and in the assay with UO-31 renal was more than 100 µM throughout.

On to `COc1cc(CNc2ccc3nc4n(c(=O)c3c2)CCCCC4)cc(OC)c1OC`, for which the TGI in the assay with 786-0 renal, with CAKI-1 renal, in the assay with CCRF-CEM leukemia, in the assay on DU-145 prostate, in the assay with HS 578T breast and with K-562 leukemia was more than 100 µM in each case. Moreover, the TGI in the assay on KM12 colon, with MALME-3M melanoma, with NCI-H460 lung, in the assay with NCI/ADR-RES ovarian, with OVCAR-5 ovarian and in the assay with PC-3 prostate was more than 100 µM in each case. The TGI with RXF 393 renal, in the assay with SF-295 CNS, with SF-539 CNS, with SK-MEL-2 melanoma, in the assay with SN12C renal and with T-47D breast was more than 100 µM throughout. Further, the TGI with U251 CNS and in the assay on UO-31 renal was more than 100 µM each time.

Regarding `O=C(CCc1ccccc1)ON1C(=S)NC(c2ccccc2)(c2ccccc2)C1=S`, the TGI was more than 100 µM with 786-0 renal; more than 100 µM with CAKI-1 renal; 93.4 µM with CCRF-CEM leukemia; more than 100 µM with DU-145 prostate; more than 100 µM in the assay with HS 578T breast; more than 100 µM in the assay with K-562 leukemia. The TGI is 89.7 µM in the assay with KM12 colon; 71.5 µM in the assay with MALME-3M melanoma; more than 100 µM with NCI-H460 lung; more than 100 µM in the assay on NCI/ADR-RES ovarian; more than 100 µM with OVCAR-5 ovarian; 63.8 µM in the assay on PC-3 prostate. Also, the TGI with RXF 393 renal was 93 µM; with SF-295 CNS it was more than 100 µM; with SF-539 CNS, more than 100 µM; with SK-MEL-2 melanoma it was 47.8 µM; with SN12C renal it was more than 100 µM; in the assay with T-47D breast, more than 100 µM. Also, the TGI in the assay on U251 CNS and with UO-31 renal was more than 100 µM each time.

In the case of `CN(C)c1ccc(/C=c2/c3ccccc3n3nc4ccccc4c23)cc1`, the TGI in the assay with 786-0 renal was more than 100 µM; with CAKI-1 renal, more than 100 µM; in the assay on CCRF-CEM leukemia it was 76.5 µM; with DU-145 prostate, more than 100 µM; in the assay with HS 578T breast it was more than 100 µM; in the assay on K-562 leukemia, more than 100 µM. Moreover, the TGI with KM12 colon, in the assay with MALME-3M melanoma, in the assay with NCI-H460 lung, in the assay on NCI/ADR-RES ovarian, with OVCAR-5 ovarian and with PC-3 prostate was more than 100 µM throughout. For the same molecule, the TGI is 66.8 µM in the assay with RXF 393 renal; 70.6 µM in the assay on SF-295 CNS; 84.8 µM with SF-539 CNS; more than 100 µM in the assay on SK-MEL-2 melanoma; more than 100 µM in the assay on SN12C renal; 55.4 µM in the assay with T-47D breast. For the same molecule, the TGI in the assay with U251 CNS and in the assay on UO-31 renal was more than 100 µM each time.
